Data set [1] is described as follows: Kinetic solubility in phosphate buffer at pH 7.4. Type of data set: physicochemical. As to the method:
The kinetic solubility of compounds in phosphate buffer at pH 7.4 was assessed. The compounds to be tested were dissolved in dimethylsulfoxide at a 10 mM concentration. Stock samples were diluted, 3 μl with 297 μl of the phosphate buffer at pH 7.4 (DulBecco's phosphate buffered saline (Sigma-Aldrich D8662), overall molarity is 0.149M and pH 7.43). The samples were then incubated for 24 hours at 37° C. with shaking, the centrifuged and an aliquot taken and tested relative to a known standard concentration of 0.1 mM.

Another data set has as its target Syk (Homo sapiens (Human), UniProt P43405). Nature of the data set: High Throughput Syk Biochemical Assay (KinEASE TR-FRET). The method, then: Syk activity was measured using KinEASE (Cisbio), a time-resolved fluorescence resonance energy transfer (TR-FRET) immunoassay. In this assay, Syk-catalyzes the phosphorylation of a XL665-labeled peptide substrate. Europium conjugated phospho-tyrosine specific antibody binds the resulting phosphorylated peptide. Formation of phosphorylated peptide is quantified by TR-FRET with Europium as the donor and XL665 the acceptor in a 2-step endpoint assay. In brief, test compounds serially diluted in DMSO were delivered into Corning white, low volume, non-binding 384 well plates using the Echo 550 acoustic liquid dispenser (Labcyte®). Syk enzyme and substrates were dispensed into assay plates using a Multi-Flo (Bio-Tek Instruments).
Background: Time-resolved FRET reads energy transfer from a long-lived donor to a nearby acceptor.

In a further data set the test system is human hepatocytes. Nature of the data set: Human Hepatocyte Stability Assay. Type of data set: in vitro ADME. The following applies: predicted hepatocyte clearance, 1 μM compound. The method, then:
The human […] stability of the compounds as predicted hepatocyte clearance in L/hr/kg was assessed. Compounds to be tested were diluted to 200 μM (4 μl of 10 mM DMSO stock into 196 μl ACN:H2O (50:50). Propranolol was used as a positive control, and buffer only without hepatocytes as 0% control. These were further diluted 4 μl with 891 μl KHB buffer (InVitroGRO catalog number Z99074) to provide 2× dosing solution. To each well of 24 well plate, 250 μl of the 2× dosing solution was added to each well with 250 μl of hepatocytes cells (1×10^6 viable cells/ml per well) or KHB for control samples to achieve a final compound concentration of 1 μM during incubation. The final solvent concentration was 0.01% DMSO and 0.25% ACN. The culture plate was placed on a rocker and incubated at 37° C., 5% CO2. Samples were collected at time 0, 1, 3, and 6 hours. The loss of parent compound was determined using LC-MS methods against a standard curve.

Where [2] appears, read: phosphate buffer, 37 °C, aqueous buffer, kinetic from dmso stock, comparison table, kinetic solubility pH 7.4.
The mark [3] stands for this setting: comparison table with known Syk inhibitors.
Where [4] appears, read: aqueous buffer, kinetic from dmso stock, kinetic solubility, phosphate buffer pH 7.4, 24 hours at 37° C.
[5] abbreviates: comparison table, kinetic solubility pH 7.4.

≈ marks a conversion by molar mass, not a printed value.

`COc1ccc(Nc2nc(-c3ccc(N)nc3)cn3ccnc23)cc1OC` [6-(6-aminopyridin-3-yl)-N-(3,4-dimethoxyphenyl)imidazo[1,2-a]pyrazin-8-amine, reference compound]: in data set [1] (setting [2]), the solubility at 24 h came to 10 µM (≈ 3.62 µg/mL). On Syk (setting [3]), this compound showed a half-inhibitory concentration (IC50) of 53 nM.

For `Nc1cncc(-c2cn3ccnc3c(Nc3ccc(N4CCO[C@@H](CO)C4)cc3)n2)n1` [Ex.-3, (R)-(4-(4-((6-(6-aminopyrazin-2-yl)imidazo[1,2-a]pyrazin-8-yl)amino)phenyl)morpholin-2-yl)methanol], the solubility at 24 h in data set [1] (setting [4]) and in data set [1] (setting [5]) was 91 µM (≈ 38.1 µg/mL) in each case. In addition, the “Hheps CL” value in the data set with human hepatocytes is 1.5 mL/min/kg. Moreover, the 50% inhibitory concentration (IC50) against Syk (20 μM ATP, 0.015 nM Syk) came out at 13.3 nM; against Syk (setting [3]), 13.3 nM.

With `Cc1ncc(-c2cn3ccnc3c(Nc3ccc(N4CCOCC4)cc3)n2)cc1N` [6-(5-amino-6-methylpyridin-3-yl)-N-(4-morpholinophenyl)imidazo[1,2-a]pyrazin-8-amine, reference compound], the solubility at 24 h in data set [1] (setting [2]) is 5 µM (≈ 2.01 µg/mL). At Syk (setting [3]), this compound registered an IC50 of 16 nM.

With `Cc1ncc(-c2cn3ccnc3c(Nc3ccc(N4CCN(C5COC5)CC4)cc3)n2)nc1N` [Ex.-1, 6-(6-amino-5-methylpyrazin-2-yl)-N-(4-(4-(oxetan-3-yl)piperazin-1-yl)phenyl)imidazo[1,2-a]pyrazin-8-amine], the solubility at 24 h in data set [1] (setting [4]) and in data set [1] (setting [5]) was 95 µM (≈ 43.5 µg/mL) each time. Also, the “Hheps CL” value in the data set on human hepatocytes is 2 mL/min/kg. Also, the IC50 against Syk (20 μM ATP, 0.015 nM Syk) is 6.2 nM; on Syk (setting [3]) it was 6.2 nM.

For the compound `COc1ccc(Nc2nc(-c3cccc(N)c3)cn3ccnc23)cc1OC` [6-(3-aminophenyl)-N-(3,4-dimethoxyphenyl)imidazo[1,2-a]pyrazin-8-amine, reference compound], in data set [1] (setting [2]), the solubility at 24 h turned out to be 3 µM (≈ 1.08 µg/mL). On Syk (setting [3]), this compound registered an IC50 of 188 nM.

As to `Nc1cncc(-c2cn3ccnc3c(Nc3ccc(N4CCN(C5COC5)CC4)c(OCCO)c3)n2)n1` [Ex.-5, 2-(5-((6-(6-aminopyrazin-2-yl)imidazo[1,2-a]pyrazin-8-yl)amino)-2-(4-(oxetan-3-yl)piperazin-1-yl)phenoxy)ethanol], the solubility at 24 h in data set [1] (setting [4]) and in data set [1] (setting [5]) was 97 µM (≈ 48.8 µg/mL) each time. Besides, the “Hheps CL” value in the data set on human hepatocytes was 1.2 mL/min/kg. The IC50 on Syk (20 μM ATP, 0.015 nM Syk) worked out at 12.2 nM; at Syk (setting [3]) it was 12.2 nM.

Take `Cc1c(-c2cncc(N)n2)nc(Nc2ccc(N3CCN(C4COC4)CC3)cc2)c2nccn12` [Ex.-4, 6-(6-aminopyrazin-2-yl)-5-methyl-N-(4-(4-(oxetan-3-yl)piperazin-1-yl)phenyl)imidazo[1,2-a]pyrazin-8-amine]: the solubility at 24 h in data set [1] (setting [4]) and in data set [1] (setting [5]) was 100 µM (≈ 45.8 µg/mL) throughout. Moreover, the “Hheps CL” value with human hepatocytes is 1.3 mL/min/kg. In addition, the IC50 worked out at 44 nM at Syk (20 μM ATP, 0.015 nM Syk) and 44 nM at Syk (setting [3]).

As to `Nc1cncc(-c2cn3ccnc3c(Nc3ccc(N4CCN(C5COC5)CC4)cc3)n2)n1` [Ex.-2, 6-(6-aminopyrazin-2-yl)-N-(4-(4-(oxetan-3-yl)piperazin-1-yl)phenyl)imidazo[1,2-a]pyrazin-8-amine], the solubility at 24 h in data set [1] (setting [4]) and in data set [1] (setting [5]) was 95 µM (≈ 42.1 µg/mL) throughout. In the data set with human hepatocytes, the “Hheps CL” value is 0.917 mL/min/kg.

Regarding `Nc1cncc(-c2cn3ccnc3c(Nc3ccc(N4CCOCC4)cc3)n2)c1` [6-(5-aminopyridin-3-yl)-N-(4-morpholinophenyl)imidazo[1,2-a]pyrazin-8-amine, reference compound], in data set [1] (setting [2]), the concentration in solution (solubility at 24 h) was 5 µM (≈ 1.94 µg/mL). The compound further gave an IC50 at Syk (setting [3]) of 31 nM.

On to `Cc1ncc(-c2cn3ccnc3c(Nc3ccc(N4CCN(C5COC5)CC4)c(OCCO)c3)n2)nc1N` [Ex.-7, 2-(5-((6-(6-amino-5-methylpyrazin-2-yl)imidazo[1,2-a]pyrazin-8-yl)amino)-2-(4-(oxetan-3-yl)piperazin-1-yl)phenoxy)ethanol], for which, in the data set on human hepatocytes, the “Hheps CL” value was 0.83 mL/min/kg. For the same compound, the 50% inhibitory concentration (IC50) at Syk (20 μM ATP, 0.015 nM Syk) was determined as 8.7 nM; on Syk (setting [3]), 8.7 nM.

On to `Nc1cncc(-c2cn3ccnc3c(Nc3ccc(N4CCN(CC(CO)CO)CC4)cc3)n2)n1` [Ex.-6, 2-((4-(4-((6-(6-aminopyrazin-2-yl)imidazo[1,2-a]pyrazin-8-yl)amino)phenyl)piperazin-1-yl)methyl)propane-1,3-diol], for which the solubility at 24 h in data set [1] (setting [4]) and in data set [1] (setting [5]) was 99 µM (≈ 47.1 µg/mL) each time. Also, the “Hheps CL” value in the data set on human hepatocytes is 1.3 mL/min/kg. In addition, the IC50 amounted to 14.5 nM against Syk (20 μM ATP, 0.015 nM Syk) and 14.5 nM at Syk (setting [3]).

As usually defined, the solubility is the concentration that dissolves in the medium under given conditions. A high value points to a readily soluble substance. One may read the IC50 as the point on the concentration scale where inhibition reaches its midpoint.

Source of the values: US9290505B2, “Substituted imidazo[1,2-a]pyrazines as Syk inhibitors” (Gilead Sciences, Inc., priority 2013, dated 2016).
